Where two headings read alike, the source gives them in different places.
Tests used:
human OX1R = target: T1, human OX1R (Homo sapiens, UniProt O43613); assay: Calcium flux assay, OX1R agonistic activity; format: cell-based; settings: CHO cells expressing human OX1R, 95% confidence intervals in brackets, duplicate measurements
T1 construct: expressed in transfected cells; host or cells: CHO-K1
T1 sequence (O43613 1-425): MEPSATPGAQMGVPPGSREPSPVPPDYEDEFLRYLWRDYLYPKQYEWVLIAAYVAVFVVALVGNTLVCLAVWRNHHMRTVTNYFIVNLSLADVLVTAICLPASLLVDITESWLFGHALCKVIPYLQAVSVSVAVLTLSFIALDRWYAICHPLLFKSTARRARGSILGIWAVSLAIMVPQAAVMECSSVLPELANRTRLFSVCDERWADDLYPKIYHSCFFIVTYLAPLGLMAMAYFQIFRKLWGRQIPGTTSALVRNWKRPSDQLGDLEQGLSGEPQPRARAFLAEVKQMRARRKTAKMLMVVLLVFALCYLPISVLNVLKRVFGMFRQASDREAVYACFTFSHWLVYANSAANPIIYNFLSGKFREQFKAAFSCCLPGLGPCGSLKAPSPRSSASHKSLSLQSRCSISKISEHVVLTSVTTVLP
Description: Calcium flux assay (in vitro agonistic activity of OX2R and OX1R)1 hOX1R/CHO -K1 cells and hOX2R/CHO-K1 cells suspended in Ham's F-12 medium (Fujifilm Wako Pure Chemical Co.) supplemented with 100 U/mL penicillin-streptomycin and 10% FBS […]
cells/well and in black-walled clear -bottomed 96-well plates (Corning) at 45000 cells/well, respectively. The plated cells were grown overnight at 37 °C in the presence of 5% CO2. The following day, the medium was removed, and the cells were incubated with assay buffer ( H BS S with 20mM HEPES, pH 7.4, and 0.1% fatty acid free BSA) containing 2.5 μg/mL Fluo- 4 AM […]
Laboratories), and 0.08% Pluronic F127 (Dojindo Laboratories) for 30 min at 37 °C in the presence of 5% CO2. After incubation, the cells were stimulated with test compounds in the assay buffer. Calcium mobilization was measured using an FDSS/μCELL (Hamamatsu Photonics […]
r epr esent the 0% and 100% responses, respectively.

human OX2R = target: T2, human OX2R (Homo sapiens, UniProt O43614); assay: Calcium flux assay, OX2R agonistic activity
T2 sequence (O43614 1-444): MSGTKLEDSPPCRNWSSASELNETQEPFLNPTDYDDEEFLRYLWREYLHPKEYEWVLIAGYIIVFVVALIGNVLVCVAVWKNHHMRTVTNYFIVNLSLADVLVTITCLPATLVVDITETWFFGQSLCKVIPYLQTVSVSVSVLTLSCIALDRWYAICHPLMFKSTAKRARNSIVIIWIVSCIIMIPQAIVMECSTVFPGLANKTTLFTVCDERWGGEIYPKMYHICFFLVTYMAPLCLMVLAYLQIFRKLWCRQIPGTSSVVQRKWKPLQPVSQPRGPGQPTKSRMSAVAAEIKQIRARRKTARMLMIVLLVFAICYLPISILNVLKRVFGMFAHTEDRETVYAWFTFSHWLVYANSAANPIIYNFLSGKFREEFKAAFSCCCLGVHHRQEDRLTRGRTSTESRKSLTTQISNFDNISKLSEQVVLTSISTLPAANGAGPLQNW

[1] = target: multidrug resistance protein 1 (MDR-1) (Homo sapiens, UniProt P08183); assay: Transcellular transport study using human MDR1-expressing LLC-PK1 cells; settings: for MDR-1 ratio (directional transport ratio B to A/A to B): 10 μM test compound, 2 h
Description: Transcellular transport study using a t ransporter- exp ressi on syst em
Human MDR1-expressing LLC -PK1 cells were cultured as reported previously with minor
modifications. 2 T he transcellular transport study was performed as reported previously.2 In brief,
the cells were grown for 7 days in an HTS Transwell 96 -well permeable support (pore size, 0.4
μm; sur f ace ar ea, 0. 143 cm2) with a polyethylene ter ephthalate membr ane ( Cor ning Lif e Sciences,
T he cells wer e pr eincubated with M199
at 37 °C for 30 min. Subsequently, transcellular transport was initiated by the addition of M199
either to apical compartments (75 μ L) or to the basolateral compartments (250 μ L) containing 10
μM digoxin, 200 μM lucifer yellow as a marker for the monolayer tightness, and 10 μM test
compounds and then terminated by the removal of each assay plate after 2 h. The aliquots (25
μL) in the opposite compartments were mixed with acetonitrile containing alprenolol an d
diclofenac as an internal standard and then centrifuged. The compound concentrations in the
supernatant were measured by LC− MS/MS. The apparent permeability (Pap p ) of test compounds
in the receiver wells was deter mined, and the efflux ratio for the MDR1 membrane permeability
test was calculated using the following equation:
Efflux ratio = Papp,BtoA/Papp,AtoB
wher e Papp,AtoB is the apical-to-ba sal passive permeability−sur f ace ar ea pr oduct and P app,BtoA is the
basal-to -apical pas sive per meability−sur f ace ar ea pr oduct.

[2] = Brain and plasma concentration after intraperitoneal administration in mice; format: in vivo, C57BL/6J mice; settings: 10 mg/kg ip; for concentration at 0.5 h / concentration at 1 h: n = 3
Description: Brain and plasma concentration of compound 16 was measured after intraperitoneal administration at 10 mg/kg in mice (Table 5).
Measurem ent of plasm a and brain concent rat ion of compound 16 in mice The aliquots of the brain homogenate were mixed with acetonitrile containing internal standard.
The mixtures were centrifuged. The supernatants were diluted with solvents for LC-MS / MS (mobile phase A: 10 mM ammonium formate/formic acid (100/0.2, v/v), mobile phase B: acetonitrile/formic acid (100/0.2, v/v)). The diluted solutions were injected into LC-MS / MS (API5000, AB Sciex, CA) equipped with Shimadzu Shim-pack XR-ODS (2.2 μm, 2.0 × 30 mm, Shimadzu Corporation, Japan) at 50 °C. Analyst sof twar e T M ( ver sio n 1.4.2) was used for data acquisition and processing.
Ethics Statement. The care and use of the animals and the experimental protocols used in this research were approved by the Experimental Animal Care and Use Committee of Takeda Phar maceutical Company Limited.

ICR mice = assay: Wakefulness time in ICR mice during the sleep phase (EEG/EMG); format: in vivo; settings: sleep phase (ZT5), 3 mg/kg subcutaneous, n = 8, P < 0.001 vs vehicle
Description: It has been reported that activation of the orexin system by intracerebroventricular injection of OX-A increases wakefulness in rodents.[20],[21] In this study, we assessed the effect of compound 16 on wakefulness time in ICR mice during the sleep phase based on the measurements of electroencephalogram and electromyogram.
Figure 5 Effect of compound 16 on wakefulness time in ICR mice during the sleep phase. Compound 16 at 3 mg/kg or vehicle was administered subcutaneously to ICR mice at zeitgeber time 5, and electroencephalograms and electromyograms were recorded. Analysis was performed with data collected during 3 h after drug administration. Data were presented as the mean + standard error of the mean (n = 8). ***P < 0.001, compared with the vehicle-treated mice (two-tailed paired t test).
Evaluation of wakefulness time m easu rem ent of compound 16 in m ice
I CR mice were obtained from CLEA Japan Inc. (Tokyo, Japan). M ice were housed in groups of 4 per cage in a light controlled room (12 h light/dark cycle with lights on at 07:00 h). Food and tap water were provided ad libitum . […] 1 Compound 16 at 3 mg/kg suspended in 0.5% methylcellulose saline was administered subcutaneously to mice at zeitgeber time 5 (ZT5) in a volume of 10 mL/kg body weight, and then EE G was recorded. […] The statistical significance between two groups was determined by paired t-test with significance set at P < 0.05. […]

[3] = read-out: OX2R agonistic activity EC50, CHO cells expressing human OX2R, calcium flux, 95% confidence intervals in brackets, duplicate measurements

Compound | EC50 (human OX1R) | EC50 (human OX2R; [3]) | MDR-1 ratio (directional transport ratio B to A/A to B) [1] | further results
CC(=O)N[C@H]1CCCN(C(C)=O)[C@H]1CO[C@H]1CC[C@@H](C(C)C)CC1 (stereo in doubt) [compound 11] | > 100 µM | – | – | EC50 (human OX2R): > 30000 nM
CCS(=O)(=O)NC1CCCN(C(C)=O)C1COC1CCC(C(C)C)CC1 (stereo not drawn) [compound 2] | > 100 µM | 570 nM | – | Emax (human OX2R; read-out: maximum response [Emax], OX2R agonism): 94%
CCS(=O)(=O)N[C@H]1CCCN(C(C)=O)[C@H]1CO[C@H]1CC[C@@H](C(C)C)CC1 [compound 3] | > 100 µM | 270 nM | – | –
CCS(=O)(=O)N[C@@H]1CCCN(C(C)=O)[C@H]1CO[C@H]1CC[C@@H](C(C)C)CC1 [compound 4] | > 100 µM | > 30000 nM | – | –
CCS(=O)(=O)N[C@H]1CCCN(C(C)=O)[C@H]1CO[C@H]1CC[C@H](C(C)C)CC1 [compound 5] | > 100 µM | > 30000 nM | – | –
CCS(=O)(=O)N[C@@H]1CCCN(C(C)=O)[C@H]1CO[C@H]1CC[C@H](C(C)C)CC1 [compound 6] | > 100 µM | > 30000 nM | – | –
CC(=O)N1CCC[C@H](NS(C)(=O)=O)[C@@H]1CO[C@H]1CC[C@@H](C(C)C)CC1 [compound 7] | > 100 µM | 330 nM | – | –
CC(=O)N1CCC[C@H](NS(=O)(=O)C(C)C)[C@@H]1CO[C@H]1CC[C@@H](C(C)C)CC1 [compound 8] | > 100 µM | 940 nM | – | –
CCCS(=O)(=O)N[C@H]1CCCN(C(C)=O)[C@H]1CO[C@H]1CC[C@@H](C(C)C)CC1 [compound 9] | > 100 µM | 2500 nM | – | –
CC(=O)N1CCC[C@H](N(C)S(C)(=O)=O)[C@@H]1CO[C@H]1CC[C@@H](C(C)C)CC1 [compound 10] | > 100 µM | > 30000 nM | – | –

More lines, main results first:

EC50 (human OX1R) | EC50 (human OX2R; [3]) | MDR-1 ratio (directional transport ratio B to A/A to B) [1] | Compound | further results
> 100 µM | – | – | CC(=O)N1CCC[C@H](NS(C)(=O)=O)[C@@H]1CO[C@H]1CC[C@@H](C)CC1 (relative stereo) [compound 12] | EC50 (human OX2R): 3700 nM
> 100 µM | – | 0.8 | CS(=O)(=O)N[C@H]1CCCN[C@H]1CO[C@H]1CC[C@@H](c2ccccc2)CC1 [compound 14] | –
> 100 µM | 11 nM | 2.2 | CCC(=O)N1CCC[C@H](NS(C)(=O)=O)[C@@H]1CO[C@H]1CC[C@@H](c2ccccc2)CC1 [compound 15] | –
> 100 µM | 5.5 nM | 0.8 | COC(=O)N1CCC[C@H](NS(C)(=O)=O)[C@@H]1CO[C@H]1CC[C@@H](c2ccccc2)CC1 [compound 16, methyl (2R,3S)-3-((methylsulfonyl)amino)-2-(((cis-4-phenylcyclohexyl)oxy)methyl)piperidine-1-carboxylate] | half-life in mice ([2]; mice): short half-life; Kp at 0.5 h ([2]; mouse, brain/plasma, C57BL/6J mice, 0.5 h, read-out: brain-to-plasma concn ratio): 0.2; Kp at 1 h ([2]; mouse, brain/plasma, C57BL/6J mice, 1 h, read-out: brain-to-plasma concn ratio): 0.2; concentration at 0.5 h ([2]; mouse, brain, C57BL/6J mice, 0.5 h, read-out: brain concn): 183 ng/g; concentration at 1 h ([2]; mouse, brain, C57BL/6J mice, 1 h, read-out: brain concn): 63 ng/g; concentration at 0.5 h ([2]; mouse, plasma, C57BL/6J mice, 0.5 h, read-out: plasma concn): 880 ng/mL; concentration at 1 h ([2]; mouse, plasma, C57BL/6J mice, 1 h, read-out: plasma concn): 288 ng/mL; total wakefulness time during 3 h after administration (ICR mice): significantly increased; MDR-1 transport A to B ([1]; apical to basal): 169
> 100 µM | 27 nM | 0.7 | CCOC(=O)N1CCC[C@H](NS(C)(=O)=O)[C@@H]1CO[C@H]1CC[C@@H](c2ccccc2)CC1 [compound 17] | –
14 µM | – | 4.8 | CCNC(=O)N1CCC[C@H](NS(C)(=O)=O)[C@@H]1CO[C@H]1CC[C@@H](c2ccccc2)CC1 [compound 18] | –
